Like-named read-outs stand apart in the source and are kept apart here. Where a SMILES comes first, the peptide text is derived from it. Bridges are numbered along the chain shown (N, C = ends). [ ]: non-standard residue; d: D form. The star is where a group is joined. ξ: configuration not given here. NMeY = CN[C@@H](Cc1ccc(O)cc1)C(=O)O; Butanoyl(2ξ-Me) = CCC(C)C(=O)*; Ile(3ξ) = CCC(C)[C@H](N)C(=O)O; Isovaleryl = CC(C)CC(=O)*
How the values were obtained:
human kallikrein 7 = human kallikrein 7 (Homo sapiens, UniProt P49862); test: Kallikrein-7 inhibitory activity in vitro (fluorescence-quenched substrate); type: biochemical
Procedure: (§1) IC50 for human kallikrein can be measured using the fluorescence-quenched substrate Ac-Glu-Asp(EDANS)-Lys-Pro-Ale-Leu-Phe^Arg-Leu-Gly-Lys(DABCYL)-Glu-NH2 (where ^ indicates the scissile bond, identified by MS analysis) which can be purchased from Biosyntan (Berlin, Germany). Enzymatic reactions are conducted in 50 mM sodium citrate buffer at pH 5.6 containing 150 mM NaCl and 0.05% (w/v) CHAPS. For the determination of IC50 values the assay is performed at room temperature in 384-well plates. All final assay volumes are 30 μl. Test compounds are dissolved in 90% (v/v) DMSO/water and diluted in water (containing 0.05% (w/v) CHAPS) to 3-times the desired assay concentration. The 11 final compound concentrations are: 0.3 nM, 1 nM, 3 nM, 10 nM, 30 nM, 100 nM, 300 nM, 1 μM, 3 μM, 10 μM and 30 μM. For each assay, 10 μl water/CHAPS (±test compound) are added per well, followed by 10 μl protease solution (diluted with 1.5× assay buffer). The protease concentration in final assay solution is 0.2 nM (according to the enzyme concentrations determined by the Bradford method). After 1 hour of incubation at room temperature, the reaction is started by addition of 10 μl substrate solution (substrate dissolved in 1.5× assay buffer, final concentration is 2 μM). […] The IC50 value is calculated from the plot of percentage of inhibition vs. inhibitor concentration using non-linear regression analysis software (XLfit, Vers. 4.0; ID Business Solution Ltd., Guildford, Surrey, UK).
The fluorescence-quenched substrate Ac-Glu-Asp(EDANS)-Lys-Pro-Ale-Leu-Phe^Arg-Leu-Gly-Lys(DABCYL)-Glu-NH2 (where ^ indicates the scissile bond, identified by MS analysis) is purchased from Biosyntan (Berlin, Germany) and kept as a 5 mM stock solution in DMSO at −20° C. All other chemicals are of analytical grade.
Enzymatic reactions are conducted in 50 mM sodium citrate buffer at pH 5.6 containing 150 mM NaCl and 0.05% (w/v) CHAPS.
All protein and peptide containing solutions are handled in siliconized tubes (Life Systems Design, Merenschwand, Switzerland). The compound solutions as well as the enzyme and the substrate solutions are transferred to the 384-well plates (black Cliniplate; cat. no. 95040020 Labsystems Oy, Finland) by means of a CyBi-Well 96-channel pipettor (CyBio AG, Jena, Germany).
(§2) For fluorescence intensity (FI) measurements an Ultra Evolution reader (TECAN, Maennedorf, Switzerland) is used. The instrument is equipped with a combination of a 350 nm (20 nm bandwidth) and a 500 nm (25 nm bandwidth) bandpass filter for fluorescence excitation and emission acquisition, respectively. To increase the signal:background ratio, an appropriate dichroic mirror is employed. The optical filters and the dichroic mirror are purchased from TECAN. The fluorophores in each well are excited by three flashes per measurement.
as §1, with “For” for “IC50 for human kallikrein can be measured using the fluorescence-quenched substrate Ac-Glu-Asp(EDANS)-Lys-Pro-Ale-Leu-Phe^Arg-Leu-Gly-Lys(DABCYL)-Glu-NH2 (where ^ indicates the scissile bond, identified by MS analysis) which can be purchased from Biosyntan (Berlin, Germany). Enzymatic reactions are conducted in 50 mM sodium citrate buffer at pH 5.6 containing 150 mM NaCl and 0.05% (w/v) CHAPS. For”, “volumes were” for “volumes are”, “concentration was” for “concentration is”

[1] = target: T1, Human neutrophil elastase (Homo sapiens, UniProt P08246); test: HNE inhibitory activity in vitro (fluorescence-quenched substrate); type: biochemical
T1 construct: purchased Elastin Products Company, Inc. (EPC, Owensville, USA) SE563
T1 sequence (P08246 30-267): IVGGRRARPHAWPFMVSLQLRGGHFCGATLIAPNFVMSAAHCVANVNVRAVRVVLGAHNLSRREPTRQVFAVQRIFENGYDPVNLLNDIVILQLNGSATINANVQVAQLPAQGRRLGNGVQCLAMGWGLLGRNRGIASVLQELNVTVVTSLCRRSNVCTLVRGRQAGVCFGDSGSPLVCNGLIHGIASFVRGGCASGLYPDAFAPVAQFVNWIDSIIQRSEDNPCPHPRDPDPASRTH
Procedure: Human neutrophil elastase (cat. no. SE563) is purchased from Elastin Products Company, Inc. (EPC, Owensville, USA). The dry powder (purity >95% stated by the supplier) was dissolved in 20 mM sodium acetate buffer, pH 5.0, 50% (v/v) glycerol, and frozen at −80° C. in aliquots.
The fluorescence-quenched substrate (DABCYL-Ser-Glu-Val^Asn-Leu-Asp-Ala-Glu-Phe-EDANS, where ^ indicates the scissile bond, identified by MS analysis) was purchased from Bachem AG (Bubendorf, Switzerland), and kept as a 5 mM stock solution in DMSO at −20° C. All other chemicals were of analytical grade.
Enzymatic reactions were conducted in 100 mM Tris/HCl buffer at pH 7.5, containing 500 mM NaCl, and 0.05% (w/v) CHAPS.
All protein and peptide containing solutions are handled in siliconized tubes (Life Systems Design, Merenschwand, Switzerland).
The compound solutions as well as the enzyme and the substrate solutions are transferred to the 384-well plates (black Cliniplate; cat. no. 95040020 Labsystems Oy, Finland) by means of a CyBi-Well 96-channel pipettor (CyBio AG, Jena, Germany).
as §2

Crl:NMRI mice = test: Anti-inflammatory activity in murine model of allergic contact dermatitis (ACD), oxazolone; type: in vivo
Procedure: Method: Crl:NMRI mice were sensitized on the shaved abdomen with 50 μl of 2% oxazolone on day 1 and challenged with 10 μl oxazolone on the inner surface of the right ear on day 8. The unchallenged left ears served as normal controls and dermatitis was evaluated from the difference in auricular weight (taken as a measure of inflammatory swelling) on day 9. The animals were treated topically with 10 μl test compound or the solvent only 30 min after the challenge. The efficacy of the treatment was calculated as the percentage inhibition of inflammatory auricular swelling relative to animals treated with the vehicle alone.

human chymotrypsin = test: Inhibition of human chymotrypsin; type: biochemical
[2] = Table 14, concentration of test compound 10 mM
[3] = Table 14, concentration of test compound 30 mM
[4] = Table 11, read-out: hKallikrein7 IC 50
[5] = Table 11, read-out: human neutrophile elastase IC 50

Chain of human kallikrein 7 (P49862 30-253): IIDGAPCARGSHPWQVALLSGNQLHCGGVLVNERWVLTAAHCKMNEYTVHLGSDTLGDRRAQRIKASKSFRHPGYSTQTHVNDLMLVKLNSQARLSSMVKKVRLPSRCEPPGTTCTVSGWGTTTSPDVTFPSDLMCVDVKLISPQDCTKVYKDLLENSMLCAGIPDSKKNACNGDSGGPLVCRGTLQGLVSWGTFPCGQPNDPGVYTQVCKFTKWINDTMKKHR

Structure (SMILES)	IC50 (human kallikrein 7; hKallikrein7 IC 50, Table 11)	IC50 [1]	% Inhibition of inflammatory swelling (Crl:NMRI mice; [2])	% Inhibition of inflammatory swelling (Crl:NMRI mice; [3])	further results
CCC(C)C1NC(=O)C(Cc2ccc(O)cc2)N(C)C(=O)C(C(C)CC)N2C(=O)C(CCC2OCc2ccccc2)NC(=O)C(CC(C)C)NC(=O)C(NC(=O)C(CCC(N)=O)NC(=O)C(C)C)C(C)OC1=O (stereo not shown) [example 9]	2 nM	3 nM	42%	38%	–
CCOC1CCC2NC(=O)C(CC(C)C)NC(=O)C(NC(=O)C(CCC(N)=O)NC(=O)C(C)C)C(C)OC(=O)C(C(C)CC)NC(=O)C(Cc3ccc(O)cc3)N(C)C(=O)C(C(C)CC)N1C2=O (stereo not shown) [example 10]	3.5 nM	9 nM	22%	25%	–
CCC(C)C1NC(=O)C(Cc2ccc(OCc3cc(C)n(C)n3)cc2)N(C)C(=O)C(C(C)CC)N2C(=O)C(CCC2O)NC(=O)C(CC(C)C)NC(=O)C(NC(=O)C(CCC(N)=O)NC(=O)C(C)C)C(C)OC1=O (stereo not shown) [example 43]	–	–	42%	55%	IC50 (human kallikrein 7; [4]): 0.2 nM; IC50 [1, 5]: 1 nM
CC(C)CC(=O)N[C@@H](CCC(N)=O)C(=O)N[C@@H]1C(=O)N[C@@H](CC(C)C)C(=O)NC2CC[C@H](O)N(C2=O)[C@@H](Cc2ccccc2)C(=O)N(C)[C@@H](Cc2ccc(O)cc2)C(=O)N[C@@H](C(C)C)C(=O)O[C@@H]1C (stereo partly shown) [formula VIII]	–	–	–	–	IC50 (human kallikrein 7; read-out: IC50 for human kallikrein 7): < 3 nM; IC50 ([1]; read-out: IC50 human neutrophile elastase): ~2.5 nM; IC50 (human chymotrypsin): ~4 nM
CCC(C)[C@@H]1NC(=O)[C@H](Cc2ccc(O)cc2)N(C)C(=O)[C@H](C(C)CC)N2C(=O)C(CC[C@@H]2O)NC(=O)[C@H](CC(C)C)NC(=O)[C@@H](NC(=O)[C@H](CCC(N)=O)NC(=O)c2ccccc2)[C@@H](C)OC1=O (stereo partly shown) [formula XIII]	–	30 nM	–	–	IC50 (human kallikrein 7): 0.7 nM
CCC(C)[C@@H]1NC(=O)[C@H](Cc2ccc(O)cc2)N(C)C(=O)[C@H](C(C)CC)N2C(=O)C(CC[C@@H]2O)NC(=O)[C@H](CC(C)C)NC(=O)[C@@H](NC(=O)[C@H](CCC(N)=O)NC(C)=O)[C@@H](C)OC1=O (stereo partly shown) [formula XII]	4 nM	50 nM	–	–	–
CCC(C)C(=O)N[C@@H](CCC(N)=O)C(=O)N[C@@H]1C(=O)N[C@@H](CC(C)C)C(=O)N2CCC[C@H]2C(=O)N[C@@H](C(C)CC)C(=O)N(C)[C@@H](Cc2ccc(O)cc2)C(=O)N[C@@H](C(C)CC)C(=O)O[C@@H]1C (stereo partly shown) [formula XIV] ({Butanoyl(2ξ-Me)}-QTLP[Ile(3ξ)][NMeY][Ile(3ξ)]; ester 2-C)	200 nM	2700 nM	–	–	–
CCC(C)[C@@H]1NC(=O)[C@H](Cc2ccc(O)cc2)N(C)C(=O)[C@H](Cc2ccccc2)N2C(=O)C(CC[C@@H]2O)NC(=O)[C@H](CC(C)C)NC(=O)[C@@H](NC(=O)[C@H](CCCNC(N)=O)NC(=O)C(C)C)[C@@H](C)OC1=O (stereo partly shown) [formula XV]	4 nM	80 nM	–	–	–
CC(C)CC(=O)N[C@@H](CCC(N)=O)C(=O)N[C@@H]1C(=O)N[C@@H](CC(C)C)C(=O)N2CCC[C@@H]2C(=O)N[C@@H](Cc2ccccc2)C(=O)N[C@@H](Cc2ccc(O)cc2)C(=O)N[C@@H](C(C)C)C(=O)O[C@@H]1C [formula X] (Isovaleryl-QTL[dP]FYV; ester 2-C)	–	–	–	–	IC50 (human kallikrein 7; [4]): 20 nM; IC50 [1, 5]: 200 nM

Reference: patent publication US9127044B2, “Cyclic depsipeptides” (NOVARTIS AG, priority 2007, dated 2015)
